Assay results as given in ChEMBL document CHEMBL1130402, “Effect of stereochemistry on the clearance mechanism of 111In(III)-labeled D- or L-benzyldiethylenetriaminepentaacetic acid” (J Med Chem, 1997).

What was measured:
Rattus norvegicus [1] = species: Rattus norvegicus; test: Kidney uptake in normal Wistar rats at 15 min; type: ADME, organism-based; conditions: in vivo, 0.25 h
Rattus norvegicus [2] = species: Rattus norvegicus; test: Kidney uptake in normal Wistar rats at 30 min; type: ADME, organism-based; conditions: in vivo, 0.5 h
Rattus norvegicus [3] = species: Rattus norvegicus; test: Kidney uptake in normal Wistar rats at 5 min; type: ADME, organism-based; conditions: in vivo
Rattus norvegicus [4] = species: Rattus norvegicus; test: Kidney uptake in normal Wistar rats at 60 min; type: ADME, organism-based; conditions: in vivo, 1 h
Rattus norvegicus [5] = species: Rattus norvegicus; test: Ratio of biodistribution in kidney and blood in normal Wistar rats at 15 min after injecting the compound.; type: ADME, organism-based; conditions: in vivo, 0.25 h
Rattus norvegicus [6] = species: Rattus norvegicus; test: Ratio of biodistribution in kidney and blood in normal Wistar rats at 30 min after injecting the compound; type: ADME, organism-based; conditions: in vivo, 0.5 h
Rattus norvegicus [7] = species: Rattus norvegicus; test: Ratio of biodistribution in kidney and blood in normal Wistar rats at 5 min after injecting the compound.; type: ADME, organism-based; conditions: in vivo
Rattus norvegicus [8] = species: Rattus norvegicus; test: Ratio of biodistribution in kidney and blood in normal Wistar rats at 60 min after injecting the compound; type: ADME, organism-based; conditions: in vivo, 1 h
Rattus norvegicus [9] = species: Rattus norvegicus; test: Ratio of biodistribution in liver and blood in normal Wistar rats at 15 min. after injecting the compound; type: ADME, organism-based; conditions: in vivo, 0.25 h
Rattus norvegicus [10] = species: Rattus norvegicus; test: Ratio of biodistribution in liver and blood in normal Wistar rats at 30 min. after injecting the compound; type: ADME, organism-based; conditions: in vivo, 0.5 h
Rattus norvegicus [11] = species: Rattus norvegicus; test: Ratio of biodistribution in liver and blood in normal Wistar rats at 5 min. after injecting the compound; type: ADME, organism-based; conditions: in vivo
Rattus norvegicus [12] = species: Rattus norvegicus; test: Ratio of biodistribution in liver and blood in normal Wistar rats at 60 min. after injecting the compound; type: ADME, organism-based; conditions: in vivo, 1 h
Rattus norvegicus [13] = species: Rattus norvegicus; test: The biodistribution in blood in normal Wistar rats at 15 min; type: ADME, organism-based; conditions: in vivo, 0.25 h
Rattus norvegicus [14] = species: Rattus norvegicus; test: The biodistribution in blood in normal Wistar rats at 30 min; type: ADME, organism-based; conditions: in vivo, 0.5 h
Rattus norvegicus [15] = species: Rattus norvegicus; test: The biodistribution in blood in normal Wistar rats at 5 min; type: ADME, organism-based; conditions: in vivo
Rattus norvegicus [16] = species: Rattus norvegicus; test: The biodistribution in blood in normal Wistar rats at 60 min; type: ADME, organism-based; conditions: in vivo, 1 h
Rattus norvegicus [17] = species: Rattus norvegicus; test: The biodistribution in bone in normal Wistar rats at 15 min; type: ADME, organism-based, Bone element; conditions: in vivo, 0.25 h
Rattus norvegicus [18] = species: Rattus norvegicus; test: The biodistribution in bone in normal Wistar rats at 30 min; type: ADME, organism-based, Bone element; conditions: in vivo, 0.5 h
Rattus norvegicus [19] = species: Rattus norvegicus; test: The biodistribution in bone in normal Wistar rats at 5 min; type: ADME, organism-based, Bone element; conditions: in vivo
Rattus norvegicus [20] = species: Rattus norvegicus; test: The biodistribution in bone in normal Wistar rats at 60 min; type: ADME, organism-based, Bone element; conditions: in vivo, 1 h
Rattus norvegicus [21] = species: Rattus norvegicus; test: The biodistribution in liver in normal Wistar rats at 15 min; type: ADME, organism-based; conditions: in vivo, 0.25 h
Rattus norvegicus [22] = species: Rattus norvegicus; test: The biodistribution in liver in normal Wistar rats at 5 min; type: ADME, organism-based; conditions: in vivo
Rattus norvegicus [23] = species: Rattus norvegicus; test: The biodistribution in liver in normal Wistar rats at 60 min; type: ADME, organism-based; conditions: in vivo, 1 h
[24] = Compound was tested for % clearance through the faeces in Wistar rats; type: ADME, organism-based; conditions: rat, read-out: Feces
[25] = Compound was tested for % clearance through the faeces in jaundice Wistar rats; type: ADME, organism-based; conditions: rat, read-out: Feces
[26] = Compound was tested for % clearance through the urine in jaundiced (TR-) Wistar rats; type: ADME, organism-based; conditions: rat
[27] = Compound was tested for % clearance through the urine in normal rat; type: ADME, organism-based
Rattus norvegicus [28] = species: Rattus norvegicus; test: The biodistribution in liver in normal Wistar rats at 30 min; type: ADME, organism-based; conditions: in vivo, 0.5 h
Rattus norvegicus [29] = species: Rattus norvegicus; test: Ratio of biodistribution in kidney and blood in normal Wistar rats at 5 min after injecting the compound; type: ADME, organism-based; conditions: in vivo
[30] = Compound was tested for % clearance through the faeces in jaundiced (TR-) Wistar rats; type: ADME, organism-based; conditions: rat, read-out: Feces
[31] = Compound was tested for % clearance through the faeces in normal Wistar rats; type: ADME, organism-based; conditions: rat, read-out: Feces
Rattus norvegicus [32] = species: Rattus norvegicus; test: Ratio of biodistribution in kidney and blood in normal Wistar rats at 15 min after injecting the compound; type: ADME, organism-based; conditions: in vivo, 0.25 h

| ID/organ (Rattus norvegicus [1]) | ID/organ (Rattus norvegicus [2]) | ID/organ (Rattus norvegicus [3]) | ID/organ (Rattus norvegicus [4]) | ID/organ (Rattus norvegicus [6]) | ID/organ (Rattus norvegicus [8]) | ID/organ (Rattus norvegicus [9]) | ID/organ (Rattus norvegicus [10]) | ID/organ (Rattus norvegicus [11]) | ID/organ (Rattus norvegicus [12]) | ID/organ (Rattus norvegicus [13]) | ID/organ (Rattus norvegicus [14]) | ID/organ (Rattus norvegicus [15]) | ID/organ (Rattus norvegicus [16]) | ID/organ (Rattus norvegicus [17]) | ID/organ (Rattus norvegicus [18]) | ID/organ (Rattus norvegicus [19]) | ID/organ (Rattus norvegicus [20]) | ID/organ (Rattus norvegicus [21]) | ID/organ (Rattus norvegicus [22]) | SMILES | also measured |
| --- | --- | --- | --- | --- | --- | --- | --- | --- | --- | --- | --- | --- | --- | --- | --- | --- | --- | --- | --- | --- | --- |
| 1.63% | 0.92% | 3.45% | 0.57% | 0.46 | 0.82 | 1.69 | 1.55 | 1.46 | 1.6 | 4.67% | 2.03% | 10.7% | 0.71% | 3.81% | 2.31% | 3.28% | 2.4% | 7.63% | 15.6% | O=C(O)CN(CCN(CCN(CC(=O)O)CC(=O)O)[C@H](Cc1ccccc1)C(=O)O)CC(=O)O | ID/organ (Rattus norvegicus [5]): 0.36; ID/organ (Rattus norvegicus [7]): 0.33; ID/organ (Rattus norvegicus [23]): 1.1%; dose excreted [24]: 42.8%; dose excreted [25]: 10.6%; dose excreted [26]: 80.4%; dose excreted [27]: 51.9%; ID/organ (Rattus norvegicus [28]): 3.15% |
| 3.04% | 1.96% | 4.74% | 1.1% | 0.74 | 1.3 | 1.1 | 0.9 | 1.04 | 0.99 | 6.36% | 2.66% | 12.7% | 0.86% | 3.76% | 2.17% | 4.59% | 2.43% | 6.84% | 13.2% | O=C(O)CN(CCN(CCN(CC(=O)O)CC(=O)O)[C@@H](Cc1ccccc1)C(=O)O)CC(=O)O | ID/organ (Rattus norvegicus [29]): 0.37; ID/organ (Rattus norvegicus [23]): 0.82%; dose excreted [30]: 3.3%; dose excreted [31]: 29.2%; dose excreted [26]: 85%; dose excreted [27]: 62%; ID/organ (Rattus norvegicus [32]): 0.48; ID/organ (Rattus norvegicus [28]): 2.37% |
